In data set [1] the test system is Sitosterol Absorption. Description: In vivo evaluation in mice: [3H]-sitosterol absorption and hepatic accumulation. The protocol: In vivo activity of compound VIII in mice was determined by the following procedure:
Male ApoE knockout mice, age 6 wks, were received from Jackson Laboratory along with age-matched C57BL/J. The mice were housed 5 per cage, normal light cycle, normal diet. Twenty-six mice of each variety were weighed and housed, 1 per cage, in suspended wire cages with normal light cycle, normal diet. After three days, the mice were reweighed. Based on body weight, the mice were divided into 5 groups for each type of treatment:
Control (corn oil) and Compositions including Compound VIII at 0.3, 1, 3, and 10 mg/kg of body weight per day.
Preparation of Compositions including Compound VIII based on 22 g average mouse body weight:
The mice were gavaged using a feeding needle 30 min before receiving ^14C-cholesterol (NEN, NEC 018) and ^3H-sitosterol (NEN, CUS 030T). The radioactive dose was prepared from: • 114 μL ^3H-sitosterol stock (1 μCi/μL in ethanol); • 1.425 mL ^14C-cholesterol stock (40 μCi/mL in ethanol); • 5.7 mg cholesterol, Sigma C 8667; • 5.7 mg β-sitosterol, Sigma, S 1270; • The ethanol was removed under N2; • 5.7 ml of corn oil was added, and the mixture was warmed to 60° C.; and shaken for 1 hr.
Each 0.1 ml dose contained 2 μCi ^3H-sitosterol, 0.1 mg cold (non radioactive) sitosterol; 1 μCi ^14C-cholesterol, and 0.1 mg cold (non radioactive) cholesterol. Radioactive content was verified: 5×10 μl counted in Beckman LSC (liquid […] counter). Tritiated sitosterol was used as an “unabsorbable” marker to compare to the absorption of [^14C]-cholesterol in a mouse fecal isotope ratio cholesterol absorption model.
On the 4th, 5th, and 6th days, feces were collected and stored at −20° C. in vials just before dosing with Control or Compound VIII late in the day. Termination of the experiment on the 7th day involved sacrifice by exsanguination, removal and weighing of the liver. 3×˜250 mg samples of liver were put in vials. The liver samples were digested with 1 ml of 1N NaOH at 60° overnight, neutralized with 0.1 ml 12N HCl and counted for ^14C and ^3H. The blood samples were allowed to clot at room temp for 1 hr, then centrifuged at 1000 G for 15 min. The serum was analyzed for total cholesterol (see Wako C I I; see Allain C C, Poon L S, Chan C S G, Richmond W, Fu P C. Enzymatic Determination of Total Serum Cholesterol. Clin. Chem. 1974; 20:470-475, which is incorporated by reference herein) and radioactivity (2×50 μL). Fecal samples were analyzed for radioactivity by combustion in a Packard Oxidizer followed by Beckman LSC.

The subject of data set [2] is plasma plant sterols (sitosterol and campesterol) and LDL-C. Nature of the data set: In vivo evaluation in humans: randomized, double-blind, placebo-controlled 8-week trial in homozygous sitosterolemia. Further details: species or system human. To be noted: homozygous sitosterolemia patients, 8 weeks. The protocol:
In a randomized multicenter, double-blind, placebo-controlled, 8-week trial, 37 human patients previously diagnosed with homozygous sitosterolemia were randomized to receive Compound VIII (n=30) or placebo (n=7): • Treatment A—Compound VIII given orally as 1 dose (10 mg) per day, • Treatment B—Placebo (matching image of Compound VIII 10 mg) given orally as 1 dose per day, every morning for 8 consecutive weeks.
During the trial, subjects were instructed to maintain (as a minimum) a National Cholesterol Education Program (NCEP) Step 1 diet
Patients were instructed to maintain a diary of food intake and monitored prior to randomization, at baseline and during therapy. Results of the central diet analysis for each subject were reported as a RISCC score (Ratio of Ingested Saturated fat and Cholesterol to Calories) and as dietary components. RISCC scores indicate the potential for a diet to influence plasma lipid levels. A score ranging from 14 to 20 correlates with a NCEP step 1 diet.
Low-Density-Lipoprotein-Cholesterol (LDL-C) results were reported as direct LDL-C (plasma concentration was determined following a standard ultra centrifugation/precipitation procedure; lipid and lipoprotein analysis, see Manual of Laboratory Operations: Lipid Research Clinics Program Report. Washington, D.C.: US Department of Health, Education, and Welfare publication; 1974. NIH 75-628, vol 1, which is incorporated by reference herein or beta-quantification) and calculated LDL-C (plasma concentration; based on Freidewald equation: LDL-C=Total cholesterol minus (Triglycerides divided by 5) minus High-density-lipoprotein cholesterol (HDL-C)).
Total cholesterol and Triglycerides were determined enzymatically using a Hitachi 747 analyzer; see, Steiner P M, Freidel J, Bremner W F, Stein E A: Standardization of micromethods for plasma cholesterol, triglyceride and HDL-cholesterol with the Lipid Clinics' methodology [abstract]. J Clin Chem Clin Biochem 1981;19:850, which is incorporated by reference herein.
HDL-C was determined enzymatically after heparin and magnesium precipitation; see, Steele W B, Koehle D F, Azar M M, Blaszkowski T P, Kuba K, Dempsey M E: Enzymatic determinations of cholesterol in high density lipoprotein fractions prepared by precipitation technique. Clin Chem 1976;22:98-101, which is incorporated by reference herein.
Plasma plant sterols (sitosterol and campesterol) and LDL-C were assessed at baseline (Day 1) and at endpoint (average of Weeks 6 and 8 values). See: Salen, Gerald; Shore, Virgie; Tint, G S; Forte, T: Shefer, S; Horak, I; Horak, E; Dayal, B; Nguyen, L.; Batta, A K; Lindgren, F T; Kwiterovich, Jr, P O, “Increased sitosterol absorption, decreased removal and expanded body pools compensate for reduced cholesterol synthesis in sitosterolemia with xanthomatosis”, J Lipid Res, Vol. 30, pp 1319-30, (1989) and Lutjohann, D; Bjorkhem, I; Beil, U F, and von Bergmann, K, “Sterol absorption and sterol balance in phytosterolemia evaluated by deuterium-labeled sterols: effect of sitostanol treatment” J Lipid Res. Vol. 36:(8), pp 1763-73, (1995), each of which is incorporated by reference herein.

The mark [3] stands for this setting: 10 mg orally once daily, endpoint = average of Weeks 6 and 8.

Structures are written as SMILES.

For `O=C1[C@H](CC[C@H](O)c2ccc(F)cc2)[C@@H](c2ccc(O)cc2)N1c1ccc(F)cc1` [Compound VIII, ezetimibe], the “% of administered dose absorbed of [^3H]-sitosterol in liver (total animal liver), average” value in data set [1] (ApoE KO mice, 0.3 mg/kg/day by gavage in corn oil) was 0.1863%; in data set [1] (ApoE KO mice, 1 mg/kg/day by gavage in corn oil) it was 0.1019%; in data set [1] (ApoE KO mice, 3 mg/kg/day by gavage in corn oil), 0.0772%; in data set [1] (ApoE KO mice, 10 mg/kg/day by gavage in corn oil), 0.0780%; in data set [1] (C57BL/6J mice, 0.3 mg/kg/day by gavage in corn oil), 0.1093%; in data set [1] (C57BL/6J mice, 1 mg/kg/day by gavage in corn oil) it was 0.0588%. The “% of administered dose absorbed of [^3H]-sitosterol in liver (total animal liver), average” value in data set [1] (C57BL/6J mice, 3 mg/kg/day by gavage in corn oil) was found to be 0.0489%; in data set [1] (C57BL/6J mice, 10 mg/kg/day by gavage in corn oil), 0.0552%. For the same molecule, the “absorption and hepatic accumulation of sitosterol” value in data set [1] (C57BL/6J and Apo E KO mice, 0.3-10 mg/kg/day) is “dose dependently inhibit”. For the same molecule, the “mean (S.E.) percent change from Baseline at endpoint in plasma Campesterol” value in data set [2] (setting [3]) is reported as −24.3% (2.9%). Besides, in data set [2] (setting [3]), the “mean (S.E.) percent change from Baseline at endpoint in plasma Sitosterol” value is −21.0% (2.8%). Further, the “percent change from Baseline at endpoint in LDL-C (mean, 95% CI)” value in data set [2] (setting [3]) is listed as −13.6% (−21.7%, −5.5%). The “reduction in campesterol compared to placebo” value in data set [2] (10 mg per day) is “significant (p<0.001) reduction”. For the same molecule, in data set [2] (10 mg per day), the “reduction in sitosterol compared to placebo” value was “significant (p<0.001) reduction”. In addition, in data set [2] (10 mg per day), the tolerability entry was “well tolerated”.

The values are drawn from patent US7417039B2, “Use of substituted azetidinone compounds for the treatment of sitosterolemia” (Schering Corporation, priority 2001, dated 2008).
